This note sets out measurements from patent US10703764B2, “Benzopiperazine compositions as BET bromodomain inhibitors” (FORMA Therapeutics, Inc., priority 2013, dated 2020).

For one assay, the system named is MV4-11 cells. Kind of assay: Oncology cell growth assay (3-day proliferation, CellTiter-Glo). In kind it is cell-based. The settings on record: Homo sapiens, MV4-11, 72 h, AML cell line MV4-11, 72 hours, compounds grouped by IC50 range, read-out: MV4-11 IC50 (inhibition of proliferation, gIC50). The procedure, abridged:
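MV4-11 AML cells (RPMI 1640, 10% FBS) plated at 3000 cells/well and exposed 72 h to compound at final 10 to 0.0045 μM (3-fold series). Viability read by CellTiter-Glo luminescence; gIC50 from four-parameter logistic fit between DMSO control and no-cell background.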

In another assay the target is T1, BRD4 BD2 (Homo sapiens, UniProt O60885).
T1 construct: made in house
As to the kind of experiment: AlphaScreen binding assay, BRD4 Bromodomain 2. The procedure, abridged: (§1)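 An AlphaScreen competition format was used with His-BRD4 BD1 or BD2 and biotin-H4 K5/8/12/16-acetyl peptide, each at matched final levels of 50 nM (BD1) or 100 nM (BD2). Incubation in HEPES/NaCl buffer with 0.1% BSA and 0.01% Triton X-100 ran ≥1 h before IC50 determination.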
For orientation: In Alpha technology, singlet oxygen from a donor bead excites a nearby acceptor bead.

In a further assay the target is T2, BRD4 BD1 (Homo sapiens, UniProt O60885).
T2 construct: made in house
Kind of assay: AlphaScreen binding assay, BRD4 Bromodomain 1. The procedure, abridged: as §1

For `CC(=O)N1c2ccc(-c3cnn(Cc4ccn(C)n4)c3)cc2N(C(=O)C2CC2)C[C@@H]1C` [Example I-682], the results for the IC50 in the assay on MV4-11 cells, at BRD4 BD2 and on BRD4 BD1 were 100 to 500 nM, 50 to 500 nM and 100 to 1000 nM, respectively.
Turning to `CC(=O)N1c2ccc(-c3cnn(Cc4cncs4)c3)cc2N(C(=O)C2CC2)C[C@@H]1C` [Example I-686], the values for the IC50 in the assay on MV4-11 cells, at BRD4 BD2 and on BRD4 BD1 were 100 to 500 nM, 50 to 500 nM and 100 to 1000 nM, respectively.
On the same counts, the results for `CC(=O)N1c2ccc(-c3cnn(C[C@@H]4CCNC4)c3)cc2N(C(=O)OC(C)C)C[C@@H]1C` [Example I-687] are 100 to 500 nM, less than 50 nM and 100 to 1000 nM.
Take `CC(=O)N1c2ccc(-c3cnn(C[C@H]4CCNC4)c3)cc2N(C(=O)OC(C)C)C[C@@H]1C` [Example I-688]: the IC50 in the assay with MV4-11 cells lay in the range of 100 to 500 nM; on BRD4 BD2, 50 to 500 nM; at BRD4 BD1, 100 to 1000 nM.
For `CC(C)OC(=O)N1C[C@H](C)N(C(=O)C2CC2)c2ccc(-c3cnn(C[C@@H]4CCNC4)c3)cc21` [Example I-689], the IC50 is more than 500 nM in the assay with MV4-11 cells, 50 to 500 nM at BRD4 BD2 and 100 to 1000 nM at BRD4 BD1.
As to `CC(C)OC(=O)N1C[C@H](C)N(C(=O)C2CC2)c2ccc(-c3cnn(C[C@H]4CCNC4)c3)cc21` [Example I-690], the results for the IC50 in the assay on MV4-11 cells, at BRD4 BD2 and at BRD4 BD1 were more than 500 nM, 50 to 500 nM and 100 to 1000 nM, respectively.
Turning to `COC(=O)N1c2ccc(-c3cnn(C[C@H]4CCNC4)c3)cc2N(C(=O)OC(C)C)C[C@@H]1C` [Example I-692], the IC50 with MV4-11 cells was more than 500 nM; at BRD4 BD2 it was 50 to 500 nM; at BRD4 BD1, 100 to 1000 nM.
Regarding `CC(=O)N1c2ccc(-c3ccc(S(C)(=O)=O)cc3)cc2N(C(=O)c2cc3cnccc3[nH]2)CC1C` (stereo not drawn) [Example I-778], the IC50 is more than 500 nM in the assay with MV4-11 cells, 50 to 500 nM on BRD4 BD2 and 1000 to 10000 nM at BRD4 BD1.
Regarding `CC(=O)N1c2ccc(-c3ccc(S(C)(=O)=O)cc3)cc2N(C(=O)C2CC2)C[C@@H]1C` [Example I-781], the IC50 in the assay on MV4-11 cells is more than 500 nM; on BRD4 BD2, 50 to 500 nM; at BRD4 BD1, 1000 to 10000 nM.
On the same counts, the results for `CC(=O)N1c2ccc(-c3ccc(S(C)(=O)=O)cc3)cc2N(C(=O)c2cc3cc(O)ccc3[nH]2)CC1C` (stereo not drawn) [Example I-786] are more than 500 nM, 50 to 500 nM and 1000 to 10000 nM.
On the same counts, the results for `CC(=O)N1c2ccc(-c3ccc(S(C)(=O)=O)cc3)cc2N(C(=O)c2cc3cccnc3[nH]2)CC1C` (stereo not drawn) [Example I-789] are 100 to 500 nM, less than 50 nM and 100 to 1000 nM.
Regarding `CC(=O)N1c2ccc(-c3ccc4ncccc4c3)cc2N(C(=O)COc2ccccc2)C[C@@H]1C` [Example I-791], the IC50 was more than 500 nM with MV4-11 cells, 50 to 500 nM at BRD4 BD2 and 1000 to 10000 nM at BRD4 BD1.
On the same counts, the results for `CC(=O)N1c2ccc(-c3cccc(-c4ccccc4)c3)cc2N(C(=O)COc2ccccc2)C[C@@H]1C` [Example I-792] are more than 500 nM, 50 to 500 nM and more than 10000 nM.
Turning to `CC(=O)N1c2ccc(-c3cccc(-c4ccccc4)c3)cc2N(C(=O)c2ccco2)C[C@@H]1C` [Example I-793], the IC50 is more than 500 nM with MV4-11 cells, 50 to 500 nM on BRD4 BD2 and 1000 to 10000 nM on BRD4 BD1.
On the same counts, the results for `CC(=O)N1c2ccc(-c3ccccc3F)cc2N(C(=O)COc2ccccc2)C[C@@H]1C` [Example I-794] are more than 500 nM, more than 500 nM and 1000 to 10000 nM.
As for `CC(=O)N1c2ccc(-c3ccccc3F)cc2N(C(=O)c2ccco2)C[C@@H]1C` [Example I-795], the IC50 in the assay with MV4-11 cells was more than 500 nM; at BRD4 BD2, 50 to 500 nM; at BRD4 BD1, 1000 to 10000 nM.
On the same counts, the results for `CC(=O)N1c2ccc(-c3ccc4c(ccn4C)c3)cc2N(C(=O)c2ccco2)C[C@@H]1C` [Example I-796] are 100 to 500 nM, less than 50 nM and 100 to 1000 nM.
Consider `CC(=O)N1c2ccc(-c3ccc(-c4ccccc4)cc3)cc2N(C(=O)c2ccco2)C[C@@H]1C` [Example I-798], for which the IC50 in the assay on MV4-11 cells was more than 500 nM; at BRD4 BD2, 50 to 500 nM; at BRD4 BD1, 1000 to 10000 nM.
For `CC(=O)N1c2ccc(-c3ccc(C(=O)O)cc3)cc2N(C(=O)c2ccco2)C[C@@H]1C` [Example I-799], the IC50 was more than 500 nM in the assay on MV4-11 cells, 50 to 500 nM on BRD4 BD2 and 1000 to 10000 nM on BRD4 BD1.
On the same counts, the results for `CC(=O)N1c2ccc(-c3ccc(N4CCOCC4)nc3)cc2N(C(=O)c2ccco2)C[C@@H]1C` [Example I-800] are 100 to 500 nM, 50 to 500 nM and 1000 to 10000 nM.
On the same counts, the results for `CNC(=O)c1cccc(-c2ccc3c(c2)N(C(=O)c2ccco2)C[C@H](C)N3C(C)=O)c1` [Example I-801] are more than 500 nM, 50 to 500 nM and 100 to 1000 nM.
On to `CC(=O)N1c2ccc(-c3ccccc3)cc2N(C(=O)c2ccco2)C[C@@H]1C` [Example I-804], for which the IC50 in the assay with MV4-11 cells was 100 to 500 nM; on BRD4 BD2 it was less than 50 nM; at BRD4 BD1 it was 1000 to 10000 nM.
As to `CC(=O)N1c2ccc(-c3ccc4c(c3)OCO4)cc2N(C(=O)c2ccco2)C[C@@H]1C` [Example I-806], the IC50 fell in the range of 100 to 500 nM in the assay on MV4-11 cells, 50 to 500 nM at BRD4 BD2 and 1000 to 10000 nM on BRD4 BD1.
`COc1ccc(-c2ccc3c(c2)N(C(=O)c2ccco2)C[C@H](C)N3C(C)=O)cc1` [Example I-807]: the results for the IC50 in the assay on MV4-11 cells, at BRD4 BD2 and on BRD4 BD1 were 100 to 500 nM, less than 50 nM and 100 to 1000 nM, respectively.
As for `CC(=O)N1c2ccc(-c3ccc(C(=O)N(C)C)cc3)cc2N(C(=O)c2ccco2)C[C@@H]1C` [Example I-809], the values for the IC50 in the assay on MV4-11 cells, on BRD4 BD2 and at BRD4 BD1 were 100 to 500 nM, less than 50 nM and 100 to 1000 nM, respectively.
On the same counts, the results for `CC(=O)N1c2ccc(-c3ccc(C(N)=O)cc3)cc2N(C(=O)c2ccco2)C[C@@H]1C` [Example I-810] are 100 to 500 nM, more than 500 nM and 100 to 1000 nM.
On the same counts, the results for `CC(=O)N1c2ccc(-c3ccc(S(C)(=O)=O)cc3)cc2N(C(=O)c2ccco2)C[C@@H]1C` [Example I-817] are 100 to 500 nM, less than 50 nM and 1000 to 10000 nM.
On to `CC(=O)N1c2ccc(-c3cnn(C)c3)cc2N(C(=O)c2ccco2)C[C@@H]1C` [Example I-822], for which the figures for the IC50 in the assay on MV4-11 cells, on BRD4 BD2 and at BRD4 BD1 were 100 to 500 nM, less than 50 nM and 100 to 1000 nM, respectively.
On the same counts, the results for `CNC(=O)c1ccc(-c2ccc3c(c2)N(C(=O)c2ccco2)C[C@H](C)N3C(C)=O)cc1` [Example I-824] are 100 to 500 nM, less than 50 nM and 1000 to 10000 nM.
On the same counts, the results for `CC(=O)N1c2ccc(-c3ccc4c(c3)OCCO4)cc2N(C(=O)c2ccco2)C[C@@H]1C` [Example I-825] are more than 500 nM, less than 50 nM and 100 to 1000 nM.
As for `CC(=O)N1c2ccc(-c3cccc(C(=O)N4CCOCC4)c3)cc2N(C(=O)c2ccco2)C[C@@H]1C` [Example I-838], the IC50 with MV4-11 cells was 100 to 500 nM; at BRD4 BD2, less than 50 nM; on BRD4 BD1, 100 to 1000 nM.
On the same counts, the results for `CC(=O)N1c2ccc(-c3cccc(S(N)(=O)=O)c3)cc2N(C(=O)c2ccco2)C[C@@H]1C` [Example I-841] are 100 to 500 nM, less than 50 nM and 1000 to 10000 nM.
On the same counts, the results for `CC(=O)N1c2ccc(-c3ccc4cnn(C)c4c3)cc2N(C(=O)c2ccco2)C[C@@H]1C` [Example I-843] are 100 to 500 nM, less than 50 nM and 100 to 1000 nM.
For `CC(=O)N1c2ccc(-c3cccc(NS(C)(=O)=O)c3)cc2N(C(=O)c2ccco2)C[C@@H]1C` [Example I-844], the figures for the IC50 in the assay on MV4-11 cells, at BRD4 BD2 and on BRD4 BD1 were 100 to 500 nM, less than 50 nM and 100 to 1000 nM, respectively.
`CC(=O)N1c2ccc(-c3cccc(S(=O)(=O)N(C)C)c3)cc2N(C(=O)c2ccco2)C[C@@H]1C` [Example I-845]: the figures for the IC50 with MV4-11 cells, on BRD4 BD2 and on BRD4 BD1 were 100 to 500 nM, 50 to 500 nM and 100 to 1000 nM, respectively.
On the same counts, the results for `CC(=O)N1c2ccc(-c3cccc(C(=O)N(C)C)c3)cc2N(C(=O)c2ccco2)C[C@@H]1C` [Example I-848] are 100 to 500 nM, less than 50 nM and 100 to 1000 nM.
Consider `CC(=O)N1c2ccc(-c3cccc4c3OCO4)cc2N(C(=O)c2ccco2)C[C@@H]1C` [Example I-849], for which the IC50 in the assay with MV4-11 cells is more than 500 nM; on BRD4 BD2, 50 to 500 nM; at BRD4 BD1, 100 to 1000 nM.
On the same counts, the results for `CC(=O)N1c2ccc(-c3ccc(N4CCOCC4)cc3)cc2N(C(=O)c2ccco2)C[C@@H]1C` [Example I-850] are 100 to 500 nM, less than 50 nM and 100 to 1000 nM.
Take `CC(=O)N1c2ccc(-c3ccc4c(cnn4C)c3)cc2N(C(=O)c2ccco2)C[C@@H]1C` [Example I-852]: the figures for the IC50 in the assay with MV4-11 cells, at BRD4 BD2 and on BRD4 BD1 were 100 to 500 nM, 50 to 500 nM and 100 to 1000 nM, respectively.
With `CC(=O)N1c2ccc(-c3cccc(-n4nc(C)cc4C)c3)cc2N(C(=O)c2ccco2)C[C@@H]1C` [Example I-857], the IC50 with MV4-11 cells is more than 500 nM; at BRD4 BD2 it was less than 50 nM; at BRD4 BD1 it was 100 to 1000 nM.
On the same counts, the results for `CC(=O)N1c2ccc(-c3cccc(NS(=O)(=O)c4ccc(C)cc4)c3)cc2N(C(=O)c2ccco2)C[C@@H]1C` [Example I-859] are 100 to 500 nM, less than 50 nM and 100 to 1000 nM.
